Test results published in patent US9833497B2, “Human originated EGF domain proteins and use of the same” (CHENGDU SOURCEBIO LIMITED-LIABILITY COMPANY, priority 2013, dated 2017).

Tests used:
Klebsiella pneumonia = assay: MIC against Gram-negative bacteria: Klebsiella pneumonia; format: cell-based
Outline: (§1)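 Bacteria grown in LB at 37° C with shaking to McFarland 0.5, pelleted and resuspended in fresh LB, then seeded at 5×10^5 CFU/mL per well. Purified recombinant human EGF domain proteins were two-fold serially diluted in triplicate and plates shaken at 37° C, 175 rpm. MIC is the lowest protein concentration with no bacterial growth.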

Pseudomonas aeruginosa = assay: MIC against Gram-negative bacteria: Pseudomonas aeruginosa; format: cell-based
Outline: as §1

Serratia marcescens = assay: MIC against Gram-negative bacteria: Serratia marcescens; format: cell-based
Outline: as §1

Citrobacter diversus = assay: MIC against Gram-negative bacteria: Citrobacter diversus; format: cell-based
Outline: as §1

E. coli DH5α = assay: Antibacterial activity: MIC and growth curve against E. coli DH5α in 96-well plate; format: cell-based; conditions: for MIC: minimal inhibitory concentration against E. coli DH5α, 96-well plate, 37° C., judged after 8 h
Outline: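 Log-phase bacteria (OD600 ~0.5) resuspended in LB at 5×10^5 CFU/mL, exposed to recombinant protein at 50, 25, 12.5 μg/mL final in triplicate, 37 °C shaking at 175 rpm. OD600 read every 30 min; MIC is lowest concentration showing no growth.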

Moraxella catarrhalis = assay: MIC against Gram-negative bacteria: Moraxella catarrhalis; format: cell-based
Outline: as §1

E. coli BL21 = assay: MIC against Gram-negative bacteria: E. coli BL21; format: cell-based; conditions: for MIC (μg/mL) E. coli BL21 / MIC: E. coli BL21
Outline: as §1

Enterobacter cloacae = assay: MIC against Gram-negative bacteria: Enterobacter cloacae; format: cell-based
Outline: as §1

Proteus vulgaris = assay: MIC against Gram-negative bacteria: Proteus vulgaris; format: cell-based
Outline: as §1

Aeromonas hydrophila = assay: MIC against Gram-negative bacteria: Aeromonas hydrophila; format: cell-based
Outline: as §1

[1] = Silver staining detection of endotoxin (LPS) hydrolysis; format: biochemical; conditions: E. coli EH100 LPS incubated overnight with protein, FIG. 28
Protocol: 1. The E. coli EH100 LPS (Sigma) samples were respectively incubated with the obtained human-originated EGF domain proteins (PRT1 to PRT1498 in Table 1) such as the recombination protein hF VII-EGF1, etc.; and the control group was the LPS sample incubated with TB S buffer. The incubation lasted overnight. Then, the centrifugation was performed to collect the pellet.
2. The 1×loading buffer for LPS (0.05 mol/L Tris-HCl, containing 10 g/L SDS, 100 g/L sucrose, 0.5% β-mercaptoethanol, 10 mg/L Bromophenol Blue, pH 6.8) was mixed with the sample of the treated pellet and incubated on a metal bath at 100° C. for 5 min.
3. 15% separating gel (containing 4 mol/L urea, Bio-Rad with a thickness of 1.0 mm, the detailed composition as follows: 1.15 mL of deionized water, 2.5 mL of 30% acrylamide, 1.3 mL of 1.5 mol/L Tris-HCl (pH 8.8, containing 10% SDS), 50 μl of 10% ammonium persulfate, 4 μl of TEMED) was mixed well and prepared. The top of the separating gel was overlaid with water.
4. 5% stacking gel was prepared as follows: 1.42 mL of deionized water, 0.33 mL of 30% acrylamide, 0.25 mL of 1 mol/L Tris-HCl (pH 6.8, containing 10% SDS), 20 μL of 10% ammonium persulfate, 2 μL of TEMED) were mixed well and poured. A ten-well comb was quickly inserted.
5. After the gel was prepared, the samples were loaded. Then, the gel was run at a voltage of 120 V to separate the samples. […]

Proteus mirabilis = assay: MIC against Gram-negative bacteria: Proteus mirabilis; format: cell-based
Outline: as §1

[2] = 96-well plate, 5×10^5 CFU/mL, 37° C., 10 h
[3] = K. pneumonia, 10 h cultivation at 37° C.
[4] = P. aeruginosa, 10 h cultivation at 37° C.
[5] = S. marcescens, 10 h cultivation at 37° C.
[6] = C. diversus, 10 h cultivation at 37° C.
[7] = M. catarrhalis, 10 h cultivation at 37° C.
[8] = E. cloacae, 10 h cultivation at 37° C.
[9] = P. vulgaris, 10 h cultivation at 37° C.
[10] = A. hydrophila, 10 h cultivation at 37° C.
[11] = P. mirabilis, 10 h cultivation at 37° C.

## hF VII-EGF1: human coagulation factor VII-EGF1 domain protein, molecular weight about 3.9 kD, recombinant, released from RFP fusion by rTEV (DGDQCASSPCQNGGSCKDQLQSYICFCLPAFEGRNCE; listed as Homo sapiens)
Klebsiella pneumonia; Klebsiella pneumonia, 96-well plate, 5×10^5 CFU/mL, 37° C., 10 h
  MIC (μg/mL) K. pneumonia: 25 µg/mL
Pseudomonas aeruginosa; Pseudomonas aeruginosa, 96-well plate, 5×10^5 CFU/mL, 37° C., 10 h
  MIC (μg/mL) P. aeruginosa: 25 µg/mL
Serratia marcescens; Serratia marcescens, 96-well plate, 5×10^5 CFU/mL, 37° C., 10 h
  MIC (μg/mL) S. marcescens: 12.5 µg/mL
Citrobacter diversus; Citrobacter diversus, 96-well plate, 5×10^5 CFU/mL, 37° C., 10 h
  MIC (μg/mL) C. diversus: 12.5 µg/mL
E. coli DH5α; E. coli DH5α, 5×10^5 CFU/mL, after 8 h of cultivation at 37° C.
  MIC (minimal inhibitory concentration): 12.5 µg/mL
E. coli DH5α; growth curve (OD 600 nm), FIG. 27 / Table 2
  inhibitory effect on the growth of E. coli DH5α: significant inhibitory effect
E. coli DH5α; 5×10^5 CFU/mL
  MIC: 12.5 µg/mL
Moraxella catarrhalis; Moraxella catarrhalis, 96-well plate, 5×10^5 CFU/mL, 37° C., 10 h
  MIC (μg/mL) M. catarrhalis: 25 µg/mL
E. coli BL21; [2]
  MIC (μg/mL) E. coli BL21: 12.5 µg/mL
Enterobacter cloacae; Enterobacter cloacae, 96-well plate, 5×10^5 CFU/mL, 37° C., 10 h
  MIC (μg/mL) E. cloacae: 12.5 µg/mL
Proteus vulgaris; Proteus vulgaris, 96-well plate, 5×10^5 CFU/mL, 37° C., 10 h
  MIC (μg/mL) P. vulgaris: 12.5 µg/mL
Aeromonas hydrophila; Aeromonas hydrophila, 96-well plate, 5×10^5 CFU/mL, 37° C., 10 h
  MIC (μg/mL) A. hydrophila: 12.5 µg/mL
[1]
  hydrolysis of LPS (LPS band in silver staining): eliminates the majority of LPS
Proteus mirabilis; Proteus mirabilis, 96-well plate, 5×10^5 CFU/mL, 37° C., 10 h
  MIC (μg/mL) P. mirabilis: 25 µg/mL

## PRT512 (CACPLISSSNNFSPSCVAEGLDDYRCTACPRGYEGQYCERCAPGYTGSPGNPGGSCQE; listed as Homo sapiens)
Klebsiella pneumonia; [2]
  MIC against K. pneumonia: 25 µg/mL
Pseudomonas aeruginosa; [2]
  MIC against P. aeruginosa: 12.5 µg/mL
Serratia marcescens; [2]
  MIC against S. marcescens: 12.5 µg/mL
Citrobacter diversus; [2]
  MIC against C. diversus: 12.5 µg/mL
E. coli DH5α; 5×10^5 CFU/mL
  MIC: 50 µg/mL
Moraxella catarrhalis; [2]
  MIC against M. catarrhalis: 25 µg/mL
E. coli BL21; [2]
  MIC against E. coli BL21: 25 µg/mL
Enterobacter cloacae; [2]
  MIC against E. cloacae: 50 µg/mL
Proteus vulgaris; [2]
  MIC against P. vulgaris: 25 µg/mL
Aeromonas hydrophila; [2]
  MIC against A. hydrophila: 25 µg/mL
Proteus mirabilis; [2]
  MIC against P. mirabilis: 50 µg/mL

## PRT910 (EIDECLSHPCQNGGTCLDLPNTYKCSCPRGTQGVHCE; listed as Homo sapiens)
Klebsiella pneumonia; [3]
  MIC: 25 µg/mL
Pseudomonas aeruginosa; [4]
  MIC: 12.5 µg/mL
Serratia marcescens; [5]
  MIC: 25 µg/mL
Citrobacter diversus; [6]
  MIC: 25 µg/mL
E. coli DH5α; 5×10^5 CFU/mL
  MIC: 50 µg/mL
Moraxella catarrhalis; [7]
  MIC: 12.5 µg/mL
E. coli BL21; 10 h cultivation at 37° C.
  MIC: 25 µg/mL
Enterobacter cloacae; [8]
  MIC: 50 µg/mL
Proteus vulgaris; [9]
  MIC: 25 µg/mL
Aeromonas hydrophila; [10]
  MIC: 12.5 µg/mL
Proteus mirabilis; [11]
  MIC: 25 µg/mL

## PRT1019 (NLDDCIAATCAPGSTCIDRVGSFSCLCPPGRTGLLCH; listed as Homo sapiens)
Klebsiella pneumonia; [3]
  MIC: 25 µg/mL
Pseudomonas aeruginosa; [4]
  MIC: 12.5 µg/mL
Serratia marcescens; [5]
  MIC: 25 µg/mL
Citrobacter diversus; [6]
  MIC: 50 µg/mL
E. coli DH5α; 5×10^5 CFU/mL
  MIC: 12.5 µg/mL
Moraxella catarrhalis; [7]
  MIC: 12.5 µg/mL
E. coli BL21; 10 h cultivation at 37° C.
  MIC: 50 µg/mL
Enterobacter cloacae; [8]
  MIC: 50 µg/mL
Proteus vulgaris; [9]
  MIC: 12.5 µg/mL
Aeromonas hydrophila; [10]
  MIC: 12.5 µg/mL
Proteus mirabilis; [11]
  MIC: 50 µg/mL

## PRT615 (CDCHALGSTNGQCDIRTGQCECQPGITGQHCERCEVNHFGFGPEGCKP; listed as Homo sapiens)
Klebsiella pneumonia; [2]
  MIC K. pneumonia: 25 µg/mL
Pseudomonas aeruginosa; [2]
  MIC P. aeruginosa: 12.5 µg/mL
Serratia marcescens; [2]
  MIC S. marcescens: 50 µg/mL
Citrobacter diversus; [2]
  MIC C. diversus: 50 µg/mL
E. coli DH5α; 5×10^5 CFU/mL
  MIC: 12.5 µg/mL
Moraxella catarrhalis; [2]
  MIC M. catarrhalis: 25 µg/mL
E. coli BL21; [2]
  MIC E. coli BL21: 25 µg/mL
Enterobacter cloacae; [2]
  MIC E. cloacae: 12.5 µg/mL
Proteus vulgaris; [2]
  MIC P. vulgaris: 25 µg/mL
Aeromonas hydrophila; [2]
  MIC A. hydrophila: 25 µg/mL
Proteus mirabilis; [2]
  MIC P. mirabilis: 12.5 µg/mL

## PRT147 (DINECEINNGGCSVAPPVECVNTPGSSHCQACPPGYQGDGRVCT; listed as Homo sapiens)
Klebsiella pneumonia; K. pneumonia, 10 h cultivation at 37° C., 5×10^5 CFU/mL
  MIC (μg/mL) K. pneumonia: 12.5 µg/mL
Pseudomonas aeruginosa; P. aeruginosa, 10 h cultivation at 37° C., 5×10^5 CFU/mL
  MIC (μg/mL) P. aeruginosa: 12.5 µg/mL
Serratia marcescens; S. marcescens, 10 h cultivation at 37° C., 5×10^5 CFU/mL
  MIC (μg/mL) S. marcescens: 12.5 µg/mL
Citrobacter diversus; C. diversus, 10 h cultivation at 37° C., 5×10^5 CFU/mL
  MIC (μg/mL) C. diversus: 12.5 µg/mL
E. coli DH5α; 5×10^5 CFU/mL
  MIC: 12.5 µg/mL
Moraxella catarrhalis; M. catarrhalis, 10 h cultivation at 37° C., 5×10^5 CFU/mL
  MIC (μg/mL) M. catarrhalis: 12.5 µg/mL
E. coli BL21; 10 h cultivation at 37° C., 5×10^5 CFU/mL
  MIC (μg/mL) E. coli BL21: 12.5 µg/mL
Enterobacter cloacae; E. cloacae, 10 h cultivation at 37° C., 5×10^5 CFU/mL
  MIC (μg/mL) E. cloacae: 12.5 µg/mL
Proteus vulgaris; P. vulgaris, 10 h cultivation at 37° C., 5×10^5 CFU/mL
  MIC (μg/mL) P. vulgaris: 25 µg/mL
Aeromonas hydrophila; A. hydrophila, 10 h cultivation at 37° C., 5×10^5 CFU/mL
  MIC (μg/mL) A. hydrophila: 12.5 µg/mL
Proteus mirabilis; P. mirabilis, 10 h cultivation at 37° C., 5×10^5 CFU/mL
  MIC (μg/mL) P. mirabilis: 12.5 µg/mL

## PRT474 (QADPCQPNPCEHGGDCLVHGSTFTCSCLAPFSGNKCQ; listed as Homo sapiens)
Klebsiella pneumonia; [2]
  MIC against K. pneumonia: 25 µg/mL
Pseudomonas aeruginosa; [2]
  MIC against P. aeruginosa: 25 µg/mL
Serratia marcescens; [2]
  MIC against S. marcescens: 12.5 µg/mL
Citrobacter diversus; [2]
  MIC against C. diversus: 12.5 µg/mL
E. coli DH5α; 5×10^5 CFU/mL
  MIC: 12.5 µg/mL
Moraxella catarrhalis; [2]
  MIC against M. catarrhalis: 50 µg/mL
E. coli BL21; [2]
  MIC against E. coli BL21: 25 µg/mL
Enterobacter cloacae; [2]
  MIC against E. cloacae: 25 µg/mL
Proteus vulgaris; [2]
  MIC against P. vulgaris: 50 µg/mL
Aeromonas hydrophila; [2]
  MIC against A. hydrophila: 50 µg/mL
Proteus mirabilis; [2]
  MIC against P. mirabilis: 12.5 µg/mL
